In patent publication US20190352276A1, “INHIBITORS OF BRUTON'S TYROSINE KINASE” (Joint Stock Company "Biocad", priority 2016, published 2019):
Read-outs that look alike come from different tables or passages of the source.

Assays:
[1] = Permeability through the monolayer of Caco-2 cells; assay type: in vitro ADME; settings: human; for Papp A→B at 2 h, 10 μM / Papp B→A at 2 h, 10 μM: 2 h at 37° C.; for efflux ratio at 2 h, 10 μM: read-out: efflux (Papp B-A/Papp A-B)
How it was run: (§1)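 Caco-2 monolayers grown 21 days on 0.4 μm transwell filters, integrity checked with Lucifer Yellow. Compounds at 10 μM were added apically at pH 6.5 (A→B) or basolaterally at pH 7.4 with 1% BSA (B→A) and sampled after 2 h. Concentrations by HPLC; Papp calculated, efflux ratio as Papp B-A/Papp A-B.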

[2] = tested on: Caco-2 cells; experiment: Permeability through the monolayer of Caco-2 cells; assay type: in vitro ADME
How it was run: as §1

[3] = target: T1, recombinant Btk kinase enzyme (Homo sapiens, UniProt Q06187); experiment: In vitro inhibition of Btk kinase activity (ADP-Glo); assay type: biochemical; settings: read-out: IC50 kinase BTK
T1 construct: purchased SignalChem B10-10H
How it was run: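 Recombinant human Btk phosphorylating Poly(Glu,Tyr 4:1) substrate (0.5 mg/mL) with 50 μM ATP, 180 min at 37° C., in presence of inhibitor. ADP formed detected by ADP-Glo luminescence; IC50 from four-parameter logistic fit.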

[4] = tested on: Mino (mantle cell lymphoma); experiment: Antiproliferative activity, Mino cells (Alamar Blue); assay type: cell-based; settings: Homo sapiens
How it was run: (§2)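 After at least one passage post-thaw, cells were seeded at ≈3*10^4 per well in RPMI-1640 containing 10% FBS. They were treated with compound dilutions (DMSO under 1%) for 72 h and then with Alamar Blue for 14-16 h. Living-cell fluorescence at 540/590 nm gave IC50 values through logistic fitting.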

[5] = tested on: HepG2 cells (hepatocellular carcinoma); experiment: General cytotoxicity on HepG2 cells (CC50; therapeutic index CC50 HepG2/IC50 Mino); assay type: cell-based; settings: therapeutic index
How it was run: (§3)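 Cells seeded at 2*10^4 per well in DMEM, compounds added after 24 h at 200 μM to 4 μM final and incubated 72 h. Viability read with Alamar Blue to derive CC50; therapeutic index is CC50 (HepG2) divided by IC50 (Mino).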

[6] = as above; assay type: cell-based; settings: human, HepG2 cells (hepatocellular carcinoma), 72 hours, Alamar Blue
How it was run: as §3

[7] = tested on: Z-138 (mantle cell lymphoma); experiment: Antiproliferative activity, Z-138 cells (Alamar Blue); assay type: cell-based; settings: Homo sapiens
How it was run: as §2

[8] = tested on: DOHH2 (follicular lymphoma); experiment: Antiproliferative activity, DOHH2 cells (Alamar Blue); assay type: cell-based; settings: Homo sapiens, DOHH-2, Table 10, 72 h, average of several tests
How it was run: as §2

[9] = Stability in human blood plasma; settings: 10 μM in pooled human blood plasma, incubated 4 hours at 37° C.
[10] = Chemical stability in artificial gastric fluid (SGF without enzymes); settings: 10 μM in SGF without enzymes, pH=1.4, 37° C.
Description: The initial candidate solution (10 mM in DMSO) was diluted with the working solution of SGF to the concentration of 10 μm (test solution). The test solution was incubated in a dry block heater at 37° C. We determined peak areas of the compounds corresponding to the start of the test (before incubating) and the end of the test (after incubating in a dry block heater at 37° C.) by HPLC using Agilent1200 chromatograph (Agilent, USA). We used gradient elution (1 mL/min flow rate). We determined amount of substance in the sample in % after incubation.
We evaluated the stability of the compounds.

[11] = target: T2, EGFR (Homo sapiens, UniProt P00533); experiment: In vitro kinase panel: EGFR; assay type: biochemical; settings: Table 9 kinase panel
T2 construct: purchased SignalChem E10-11G
Description: The measurements were carried out in a 25 μL reaction volume using a 96-well plate (Corning, #3642). The kinase enzyme and inhibitor were pre-incubated for 10 minutes in the reaction buffer containing 25 mM of MOPS (pH 7.2), 12.5 mM of 0-glycerophosphate, 27 mM of MgCl2, 2 mM of MnCl2, 5 mM of EGTA, 2 mM of EDTA, 0.3 mM of DTT, and 1.2 mg/mL of bovine serum albumin. Staurosporine (Abcam Biochemicals, ab146588) was used as a reference inhibitor and 0.1% DMSO in the reaction buffer—as a negative control. The solution of 0.5 mg/mL peptide substrate and 50 &M ATP in the same buffer were added; the solution was incubated for 180 minutes at 37° C. To detect the amount of ATP taken up during the kinase reaction, the equivalent amount of ADP (from the ADP Glo Detection Kit (Promega, #V9101)) was used according to the protocol. The reaction mixture was equilibrated to room temperature. 25 µL of ADP-Glo Reagent were added into each well; the plate was incubated for 40 minutes. 50 μL of Kinase Detection Reagent were added; the plate was incubated for 30 minutes. The luminescence was measured with multimode plate reader (Tecan Infinite M200Pro, Switzerland). IC50 values were calculated using Magellan 7.2 software (Tecan, Switzerland) approximating experimental points by four-parameter logistic model with the optimization by Levenberg-Marquardt.
For active compounds selected by screening using the target enzyme BTK, the values of IC50 were determined on a kinase panel: EGFR (SignalChem, #E10-11G), ITK (SignalChem, #I13-10G) and TEC (SignalChem, #T03-10G).

[12] = Table 10, 72 h, average of several tests
[13] = Table 10, average of several tests

T1 sequence (Q06187 whole entry): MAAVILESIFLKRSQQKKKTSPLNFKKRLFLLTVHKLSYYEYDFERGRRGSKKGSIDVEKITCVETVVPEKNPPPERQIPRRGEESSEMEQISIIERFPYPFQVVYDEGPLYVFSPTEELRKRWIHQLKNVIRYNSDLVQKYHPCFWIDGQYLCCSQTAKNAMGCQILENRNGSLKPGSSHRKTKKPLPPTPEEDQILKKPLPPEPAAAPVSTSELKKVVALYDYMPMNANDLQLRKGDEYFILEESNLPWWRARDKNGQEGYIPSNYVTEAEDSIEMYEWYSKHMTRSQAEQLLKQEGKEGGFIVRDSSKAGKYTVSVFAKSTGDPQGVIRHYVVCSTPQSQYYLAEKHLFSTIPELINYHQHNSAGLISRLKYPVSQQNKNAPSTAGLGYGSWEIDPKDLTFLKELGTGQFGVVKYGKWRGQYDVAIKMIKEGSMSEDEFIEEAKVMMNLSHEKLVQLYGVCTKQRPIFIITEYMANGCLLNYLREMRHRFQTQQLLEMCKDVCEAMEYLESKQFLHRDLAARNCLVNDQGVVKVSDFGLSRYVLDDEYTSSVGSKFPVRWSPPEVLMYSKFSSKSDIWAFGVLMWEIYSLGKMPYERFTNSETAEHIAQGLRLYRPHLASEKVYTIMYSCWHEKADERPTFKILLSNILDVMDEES
T2 sequence (P00533 672-1210 limits assumed): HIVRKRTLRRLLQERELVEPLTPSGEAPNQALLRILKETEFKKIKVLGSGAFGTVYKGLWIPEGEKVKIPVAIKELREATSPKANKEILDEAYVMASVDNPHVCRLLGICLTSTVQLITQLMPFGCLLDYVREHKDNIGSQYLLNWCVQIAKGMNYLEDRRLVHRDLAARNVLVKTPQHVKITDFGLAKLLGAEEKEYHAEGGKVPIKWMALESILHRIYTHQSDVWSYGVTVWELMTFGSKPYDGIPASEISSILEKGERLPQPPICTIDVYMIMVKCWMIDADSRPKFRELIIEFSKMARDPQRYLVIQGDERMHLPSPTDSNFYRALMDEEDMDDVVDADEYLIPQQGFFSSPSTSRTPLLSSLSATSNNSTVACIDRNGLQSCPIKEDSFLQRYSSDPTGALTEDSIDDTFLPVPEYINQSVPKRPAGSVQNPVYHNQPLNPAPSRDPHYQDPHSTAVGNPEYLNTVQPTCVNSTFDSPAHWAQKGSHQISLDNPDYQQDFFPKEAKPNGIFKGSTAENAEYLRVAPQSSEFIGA

| Papp A→B at 2 h, 10 μM [1] | Papp B→A at 2 h, 10 μM [1] | efflux (Papp B-A/Papp A-B) [2] | IC50 ([3]; Table 8, ADP-Glo) | IC50 [4, 12] | efflux ratio at 2 h, 10 μM [1] | IC50 [7, 12] | IC50 [8] | Amount of substance in the sample, % (stability in human blood plasma) [9] | Amount of substance in the sample in % (chemical stability) [10] | IC50 [11] | IC50 ([3]; Table 9 kinase panel) | IC50 ([4]; Table 11, 72 h) | IC50 ([7]; Table 11, 72 h) | SMILES | CC50 (HepG2)/IC50 (Mino) ([5]; Table 10) | CC50 at 72 h [6, 13] | CC50 (HepG2)/IC50 (Mino) ([5]; Table 11) | CC50 at 72 h ([6]; Table 11) |
| --- | --- | --- | --- | --- | --- | --- | --- | --- | --- | --- | --- | --- | --- | --- | --- | --- | --- | --- |
| 9.31 ×10⁻⁶ cm/s | 8.4 ×10⁻⁶ cm/s | – | 1100 nM | 13.6 µM | 0.9 | 16 µM | 14 µM | 84.7% | – | – | – | – | – | C=CC(=O)N1CCC[C@@H](n2nc(-c3ccc(Oc4ccncc4C(N)=O)cc3)c3cncc(Cl)c32)C1 [BCD-BTK-203, (R)-4-(4-(1-(1-acryloylpiperidin-3-yl)-7-chloro-1H-pyrazolo[4,3-c]pyridin-3-yl)phenoxy)nicotinamide] | 4.55 | 61.9 µM | – | – |
| 20.2 ×10⁻⁶ cm/s | 17.4 ×10⁻⁶ cm/s | – | 55.5 nM | 1.1 µM | 0.86 | 8.58 µM | 3.55 µM | 92.0% | – | – | – | – | – | C=CC(=O)N1CCC[C@@H](n2nc(-c3ccc(Oc4cccnc4C#N)cc3)c3cncc(Cl)c32)C1 [BCD-BTK-218, 3-(4-{7-chloro-1-[1-(prop-2-enoyl)piperidin-3-yl]-1H-pyrazolo[4,3-c]pyridin-3-yl}phenoxy)pyridine-2-carbonitrile] | 23.92 | 26.2 µM | – | – |
| 6.51 ×10⁻⁶ cm/s | 2.87 ×10⁻⁶ cm/s | – | 17.4 nM | 8.93 µM | 0.44 | 11.1 µM | 3.79 µM | 96.8% | 100% | – | – | – | – | C=CC(=O)N1CCC[C@@H](n2nc(-c3ccc(Oc4cccnc4C#N)cc3)c3c(N)ncc(Cl)c32)C1 [BCD-BTK-236, 3-(4-{4-amino-7-chloro-1-[(3R)-1-(prop-2-enoyl)piperidin-3-yl]-1H-pyrazolo[4,3-c]pyridin-3-yl}phenoxy) pyridine-2-carbonitrile] | 3.03 | 27.1 µM | – | – |
| 25.8 ×10⁻⁶ cm/s | 12 ×10⁻⁶ cm/s | – | – | – | 0.4 | – | – | – | – | 127 nM | 1.16 nM | 11.6 µM | 21.2 µM | C=CC(=O)N1CCC[C@@H](n2nc(-c3ccc(Oc4ccncc4)cc3)c3c(N)ncc(C#N)c32)C1 [BCD-BTK-134, (R)-1-(1-acryloylpiperidin-3-yl)-4-amino-3-(4-(pyridin-4-yloxy)phenyl)-1H-pyrazolo[4,3-c]pyridin-7-carbonitrile] | – | – | 5.80 | 64 µM |

The next lines start with the compound.

| SMILES | Papp A→B at 2 h, 10 μM [1] | Papp B→A at 2 h, 10 μM [1] | efflux (Papp B-A/Papp A-B) [2] | IC50 ([3]; Table 8, ADP-Glo) | IC50 [4, 12] | efflux ratio at 2 h, 10 μM [1] | IC50 [7, 12] | IC50 [8] | Amount of substance in the sample, % (stability in human blood plasma) [9] | Amount of substance in the sample in % (chemical stability) [10] | IC50 [11] | IC50 ([3]; Table 9 kinase panel) | IC50 ([4]; Table 11, 72 h) | IC50 ([7]; Table 11, 72 h) | CC50 (HepG2)/IC50 (Mino) ([5]; Table 10) | CC50 at 72 h [6, 13] | CC50 (HepG2)/IC50 (Mino) ([5]; Table 11) | CC50 at 72 h ([6]; Table 11) |
| --- | --- | --- | --- | --- | --- | --- | --- | --- | --- | --- | --- | --- | --- | --- | --- | --- | --- | --- |
| C=CC(=O)N1CCC[C@@H](n2nc(-c3ccc(C(=O)Nc4cc(C(F)(F)F)ccn4)cc3)c3cncc(Cl)c32)C1 [BCD-BTK-210, (R)-4-(1-(1-acryloylpiperidin-3-yl)-7-chloro-1H-pyrazolo[4,3-c]pyridin-3-yl)-N-(4-(trifluoromethyl)pyridin-2-yl)benzamide] | 11.9 ×10⁻⁶ cm/s | 0.21 ×10⁻⁶ cm/s | 0.02 | – | – | – | – | – | – | – | – | – | – | – | – | – | – | – |
| C=CC(=O)N1CCC[C@@H](n2nc(-c3cnc(C(=O)Nc4ccccn4)nc3)c3cncc(Cl)c32)C1 [BCD-BTK-229, (R)-5-(1-(1-acryloylpiperidin-3-yl)-7-chloro-1H-pyrazolo[4,3-c]pyridin-3-yl)-N-(pyridin-2-yl)pyrimidine-2-carboxamide] | 10.7 ×10⁻⁶ cm/s | 12.2 ×10⁻⁶ cm/s | – | 43.9 nM | 36.3 µM | 1.14 | 77.1 µM | 41.2 µM | 83.5% | 99.8% | – | – | – | – | >2.75 | > 100 µM | – | – |
| C=CC(=O)N1CC[C@H](n2nc(-c3ccc(Oc4ccncc4)cc3)c3cncc(Cl)c32)C1 [BCD-BTK-266, (S)-1-(3-(7-chloro-3-(4-(pyridin-4-yloxy)phenyl)-1H-pyrazolo[4,3-c]pyridin-1-yl)pyrrolidin-1-yl)prop-2-en-1-one] | 9.5 ×10⁻⁶ cm/s | 2.2 ×10⁻⁶ cm/s | – | 13.2 nM | 3.61 µM | 0.23 | 12.6 µM | 4.99 µM | 87.2% | 100% | – | – | – | – | 3.33 | 12 µM | – | – |
| C=CC(=O)N1CCC[C@@H](n2nc(-c3ccc(Oc4ccncc4)cc3)c3c(N)nccc32)C1 [BCD-BTK-241, (R)-1-(1-acryloylpiperidin-3-yl)-4-amine-3-(4-(pyridin-4-yloxy)phenyl)-1H-pyrazolo[4,3-c]pyridine] | – | – | – | 10 nM | 21.3 µM | – | 15.5 µM | 11.5 µM | – | – | 25.2 nM | – | – | – | 2.13 | 45.4 µM | – | – |
| C=CC(=O)N1CCC[C@@H](n2nc(-c3ccc(C(=O)Nc4cccc(F)n4)cc3)c3cncc(C#N)c32)C1 [BCD-BTK-223, 4-{7-cyano-1-[(3R)-1-(prop-2-enoyl)piperidin-3-yl]-1H-pyrazolo[4,3-c]pyridin-3-yl}-N-(6-fluoropyridin-2-yl)benzamide] | 5.9 ×10⁻⁶ cm/s | 0.3 ×10⁻⁶ cm/s | 0.05 | – | – | – | – | – | – | 96.7% | – | – | – | – | – | – | – | – |
| C=CC(=O)N1CCC[C@@H](n2nc(-c3cnc(C(=O)Nc4cc(C(F)(F)CC)ccn4)nc3)c3cncc(Cl)c32)C1 [BCD-BTK-293, (R)-5-(1-(1-acryloylpiperidin-3-yl)-7-chloro-1H-pyrazolo[4,3-c]pyridin-3-yl)-N-(4-(1,1-difluoropropyl)pyridin-2-yl)pyrimidine-2-carboxamide] | 6.17 ×10⁻⁶ cm/s | 0.37 ×10⁻⁶ cm/s | 0.06 | – | 4.3 µM | – | > 50 µM | > 100 µM | – | – | – | – | – | – | >23.23 | > 100 µM | – | – |
